In US20100144712A1 (priority 2007, published 2010):
Values after ≈ are worked out from the molar mass of the structure shown.

Assays:
Type in all cases: cell-based
[1] = test system: Aspergillus fumigatus (ATCC 16424); assay: In vitro antifungal activity (MIC80), Aspergillus fumigatus ATCC 16424; settings: Aspergillus fumigatus, ATCC16424, Table 2, ATCC 16424; read-out: Minimal inhibitory concentration (MIC80)
Description: (§1) In vitro antifungal activities of the inventive antifungal compounds were evaluated using test strains including Candida albican (ATCC 90873, 204276, 62342, 64124, 64550, 96901, MYA-573, MYA-574, MYA-575, MYA-576, MYA-1003) and Aspergillus fumigatus (ATCC 16424). Test samples and positive control samples were prepared by dissolving the inventive compounds and comparative compounds, i.e., amphotericin B, fluconazole and itraconazole, in DMSO, respectively, and each successively diluted with medium to obtain test and positive control solutions having test compound concentrations of 0.125 μg/ml to a maximum concentration not generating turbidity. Minimal inhibitory concentration (MIC80) of each compound was determined as the lowest concentration of the test compounds required to reduce growth by 80% relative to a control strain not treated.
(§2) 1) Test strain: Candida albican ATCC 90873, 204276, 62342, 64124, 64550, 96901, MYA-573, MYA-574, MYA-575, MYA-576, MYA-1003, and Aspergillus fumigatus ATCC 16424 were commercially obtained from The American Type Culture Collection (ATCC) and subcultured in CHEMON Co. Ltd. (amphotericin B was commercially purchased from Sigma, and fluconazole and itraconazole were prepared according to methods described in British Patent No. 2,099,818; and U.S. Pat. No. 4,267,179, respectively).
(§3) 2) Medium and culture condition: Candida albican was cultured in Sabourad Dextrose Agar, YM Agar or Potato Dextrose Agar according to ATCC information at a temperature of 37° C., 35° C., 30° C. or 25° C. Aspergillus fumigatus was cultured in Malt Extract Agar or Potato Dextrose Agar at a temperature ranging from 24 to 27° C.
(§4) 3) Preparation of test samples: the inventive compounds and comparative compounds were each diluted with DMSO to obtain 1 to 2 ml of a test sample in a concentration of 100-folds of the determining maximum concentration (256 μg/ml).
(§5) The test samples were each successively diluted with RPMI 1640 to obtain test solutions having concentrations of […] in a 12×75 mm sterilized disposable culture tube. The final concentration of DMSO was adjusted to […] (v/v).
(§6) 5) Preparation of strain solution and inoculation
(§7) Candida albican strains were each subcultured in Sabourad Dextrose Agar, YM Agar or Potato Dextrose Agar medium at 35° C. for 2˜3 days. In the case of yeasts, a single colony was taken from prominent colonies and suspended in 0.85% sterile physiological saline solution and the turbidity of the suspension was adjusted to 80˜82% at 530 nm, and then diluted 50-fold with RPMI 1640 medium to 1.0×10^3˜5.0×10^3 CFU/ml. The turbidity of fungi was adjusted to 80˜82% and the suspension was diluted 50-fold to […]. Aspergillus fumigatus strains were subcultured in Malt Extract Agar for 7˜10 days, and a single colony was taken from prominent colonies and suspended in 0.85% sterile physiological saline solution and the suspension was adjusted to 0.108 at 530 nm, and then diluted 1000-fold with RPMI 1640 medium to 0.4×10^2˜5×10^4 CFU/ml. The turbidity of fungi was adjusted to 80˜82% and the suspension was diluted 50-fold to 0.4102˜0.5104 CFU/ml.
(§8) The strain solutions thus obtained were each seeded into a sterilized 96-well microplate, 0.1 ml of each test solution were added thereto, and […] of alamarblue was treated to each well (Biosource, #DAL1100). This procedure was repeated 2 times.
(§9) Minimal inhibitory concentration (MIC80) of each compound was determined as the lowest concentration of the test compounds required to reduce growth by 80% relative to a control strain not treated.
MIC80 of each of the compounds of which antifungal activities can be confirmed by Table 2 was determined using other test strains, i.e., Aspergillus fumigatus ATCC 16424 and MYA-1163, Aspergillus terreus ATCC 28301, Aspergillus flavus ATCC MYA-1004, and Aspergillus niger ATCC 9142.

[2] = test system: Candida albican ATCC 90873; assay: In vitro antifungal activity (MIC80), Candida albican ATCC 90873; settings: Candida, ATCC90873; Table 2, ATCC 90873; read-out: Minimal inhibitory concentration (MIC80)
Procedure, shortened: (§10)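 Broth microdilution in RPMI 1640 with 2% (v/v) final DMSO, test solutions 0.25 to 256 […]. Inoculum of 1.0×10^3–5.0×10^3 CFU/ml came from colonies grown 2–3 days at 35 °C, and alamarBlue was added. MIC80 is the lowest concentration reducing growth by 80% versus untreated control.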

[3] = test system: Candida albican ATCC 96901; assay: In vitro antifungal activity (MIC80), Candida albican ATCC 96901; settings: Candida, ATCC96901; Table 2, ATCC 96901; read-out: Minimal inhibitory concentration (MIC80)
Procedure, shortened: as §10

[4] = test system: Candida albican ATCC MYA-1003; assay: In vitro antifungal activity (MIC80), Candida albican ATCC MYA-1003; settings: Candida; Table 2, MYA 1003; read-out: Minimal inhibitory concentration (MIC80)
Procedure, shortened: as §10

[5] = test system: Candida albican ATCC 204276; assay: In vitro antifungal activity (MIC80), Candida albican ATCC 204276; settings: ATCC204276, Table 2, 204276, read-out: Minimal inhibitory concentration (MIC80)
Description: as §1, §2, §3, §4, §5, §6, §7, §8, §9

[6] = test system: Candida albican ATCC 62342; assay: In vitro antifungal activity (MIC80), Candida albican ATCC 62342; settings: Candida, ATCC62342; Table 2, 62342; read-out: Minimal inhibitory concentration (MIC80)
Procedure, shortened: as §10

[7] = test system: Candida albican ATCC 64124; assay: In vitro antifungal activity (MIC80), Candida albican ATCC 64124; settings: Candida, ATCC64124; Table 2, 64124; read-out: Minimal inhibitory concentration (MIC80)
Procedure, shortened: as §10

[8] = test system: Candida albican ATCC 64550; assay: In vitro antifungal activity (MIC80), Candida albican ATCC 64550; settings: Candida, ATCC64550; Table 2, 64550; read-out: Minimal inhibitory concentration (MIC80)
Procedure, shortened: as §10

[9] = test system: Candida albican ATCC MYA-573; assay: In vitro antifungal activity (MIC80), Candida albican ATCC MYA-573; settings: Candida; Table 2, MYA 573; read-out: Minimal inhibitory concentration (MIC80)
Procedure, shortened: as §10

[10] = test system: Candida albican ATCC MYA-574; assay: In vitro antifungal activity (MIC80), Candida albican ATCC MYA-574; settings: Candida; Table 2, MYA 574; read-out: Minimal inhibitory concentration (MIC80)
Procedure, shortened: as §10

[11] = test system: Candida albican ATCC MYA-575; assay: In vitro antifungal activity (MIC80), Candida albican ATCC MYA-575; settings: Candida; Table 2, MYA 575; read-out: Minimal inhibitory concentration (MIC80)
Procedure, shortened: as §10

[12] = test system: Candida albican ATCC MYA-576; assay: In vitro antifungal activity (MIC80), Candida albican ATCC MYA-576; settings: Candida; Table 2, MYA 576; read-out: Minimal inhibitory concentration (MIC80)
Procedure, shortened: as §10

SMILES | MIC80 [1] | MIC80 [2] | MIC80 [3] | MIC80 [4] | MIC80 [5] | MIC80 [6] | MIC80 [7] | MIC80 [8] | MIC80 [9] | MIC80 [10] | MIC80 [11] | MIC80 [12]
C[C@@H](N1CCN(Cc2cccs2)CC1)[C@](O)(Cn1cncn1)c1ccc(F)cc1F [Example 44, (2R,3R)-2-(2,4-difluorophenyl)-3-(4-((thiophen-2-yl)methyl)piperazin-1-yl)-1-(1H-1,2,4-triazol-1-yl)butan-2-ol] | 0.5 µg/mL (≈ 1.15 µM) | 0.125 µg/mL (≈ 0.288 µM) | 64 µg/mL (≈ 148 µM) | > 128 µg/mL | 0.125 µg/mL (≈ 0.288 µM) | 4 µg/mL (≈ 9.23 µM) | 32 µg/mL (≈ 73.8 µM) | 4 µg/mL (≈ 9.23 µM) | 2 µg/mL (≈ 4.61 µM) | 32 µg/mL (≈ 73.8 µM) | 32 µg/mL (≈ 73.8 µM) | 0.125 µg/mL (≈ 0.288 µM)
C[C@@H](N1CCN(c2nc3ccccc3n2C)CC1)[C@](O)(Cn1cncn1)c1ccc(F)cc1F [Example 3, (2R,3R)-2-(2,4-difluorophenyl)-3-(4-(1-methyl-1H-benzoimidazol-2-yl)piperazin-1-yl)-1-(1H-1,2,4-triazol-1-yl)butan-2-ol] | 1 µg/mL (≈ 2.14 µM) | 0.125 µg/mL (≈ 0.267 µM) | 4 µg/mL (≈ 8.56 µM) | > 128 µg/mL | 0.125 µg/mL (≈ 0.267 µM) | 8 µg/mL (≈ 17.1 µM) | 16 µg/mL (≈ 34.2 µM) | 2 µg/mL (≈ 4.28 µM) | 4 µg/mL (≈ 8.56 µM) | 16 µg/mL (≈ 34.2 µM) | 16 µg/mL (≈ 34.2 µM) | 0.125 µg/mL (≈ 0.267 µM)
C[C@@H](N1CCN(c2nc3ccccc3s2)CC1)[C@](O)(Cn1cncn1)c1ccc(F)cc1F [Example 2, (2R,3R)-3-(4-(benzothiazol-2-yl)piperazin-1-yl)-2-(2,4-difluorophenyl)-1-(1H-1,2,4-triazol-1-yl)butan-2-ol] | 0.5 µg/mL (≈ 1.06 µM) | 0.125 µg/mL (≈ 0.266 µM) | 2 µg/mL (≈ 4.25 µM) | 128 µg/mL (≈ 272 µM) | 0.125 µg/mL (≈ 0.266 µM) | 0.5 µg/mL (≈ 1.06 µM) | 4 µg/mL (≈ 8.5 µM) | 1 µg/mL (≈ 2.13 µM) | 0.25 µg/mL (≈ 0.531 µM) | 8 µg/mL (≈ 17 µM) | 8 µg/mL (≈ 17 µM) | 0.125 µg/mL (≈ 0.266 µM)
COc1ccc(C(=O)c2cnc3sc(C(=O)N4CCN(C(C)C(O)(Cn5cncn5)c5ccc(F)cc5F)CC4)cn23)cc1 (centres unmarked) [Example 57] | 0.5 µg/mL (≈ 0.804 µM) | 0.125 µg/mL (≈ 0.201 µM) | 8 µg/mL (≈ 12.9 µM) | > 128 µg/mL | 0.125 µg/mL (≈ 0.201 µM) | 0.5 µg/mL (≈ 0.804 µM) | 8 µg/mL (≈ 12.9 µM) | 4 µg/mL (≈ 6.43 µM) | 1 µg/mL (≈ 1.61 µM) | 8 µg/mL (≈ 12.9 µM) | 8 µg/mL (≈ 12.9 µM) | 0.125 µg/mL (≈ 0.201 µM)
C[C@@H](N1CCN(c2ccc(C#N)nc2)CC1)[C@](O)(Cn1cncn1)c1ccc(F)cc1F [Example 17, 5-(4-((2R,3R)-3-(2,4-difluorophenyl)-3-hydroxy-4-(1H-1,2,4-triazol-1-yl)butan-2-yl)piperazin-1-yl)picolinonitrile] | 8 µg/mL (≈ 18.2 µM) | 0.125 µg/mL (≈ 0.284 µM) | 8 µg/mL (≈ 18.2 µM) | 32 µg/mL (≈ 72.8 µM) | 0.125 µg/mL (≈ 0.284 µM) | 2 µg/mL (≈ 4.55 µM) | 16 µg/mL (≈ 36.4 µM) | 1 µg/mL (≈ 2.28 µM) | 0.25 µg/mL (≈ 0.569 µM) | 64 µg/mL (≈ 146 µM) | 64 µg/mL (≈ 146 µM) | 0.125 µg/mL (≈ 0.284 µM)
C[C@@H](N1CCN(c2ccc3ccccc3n2)CC1)[C@](O)(Cn1cncn1)c1ccc(F)cc1F [Example 19, (2R,3R)-2-(2,4-difluorophenyl)-3-(4-(quinolin-2-yl)piperazin-1-yl)-1-(1H-1,2,4-triazol-1-yl)butan-2-ol] | 0.125 µg/mL (≈ 0.269 µM) | 0.125 µg/mL (≈ 0.269 µM) | 0.5 µg/mL (≈ 1.08 µM) | > 128 µg/mL | 0.125 µg/mL (≈ 0.269 µM) | 0.25 µg/mL (≈ 0.538 µM) | 4 µg/mL (≈ 8.61 µM) | 0.5 µg/mL (≈ 1.08 µM) | 0.25 µg/mL (≈ 0.538 µM) | > 128 µg/mL | > 128 µg/mL | 0.125 µg/mL (≈ 0.269 µM)
C[C@@H](N1CCN(Cc2ccccn2)CC1)[C@](O)(Cn1cncn1)c1ccc(F)cc1F [Example 41, (2R,3R)-2-(2,4-difluorophenyl)-3-(4-((pyridin-2-yl)methyl)piperazin-1-yl)-1-(1H-1,2,4-triazol-1-yl)butan-2-ol] | 1 µg/mL (≈ 2.33 µM) | 0.125 µg/mL (≈ 0.292 µM) | 32 µg/mL (≈ 74.7 µM) | > 128 µg/mL | 0.125 µg/mL (≈ 0.292 µM) |  | 64 µg/mL (≈ 149 µM) | 16 µg/mL (≈ 37.3 µM) | 2 µg/mL (≈ 4.67 µM) | 64 µg/mL (≈ 149 µM) | 64 µg/mL (≈ 149 µM) | 0.125 µg/mL (≈ 0.292 µM)
